Data taken from patent US9399649B2, “Compounds for treating spinal muscular atrophy” (PTC Therapeutics Inc., priority 2012, dated 2016).

Columns and labels:
[1] = tested on: full length and Δ7 SMN2 mRNA; assay: SMN2 mRNA RT-qPCR splicing assay in animal tissues; assay type: in vivo; details: C/C-allele SMA mice, brain and muscle, 10 mg/kg oral BID for 10 days, FIG. 6
Description: The reverse transcription-quantitative PCR-based (RT-qPCR) assay is used to quantify the levels of the full length and Δ7 SMN2 mRNA in tissues from mice treated with test compound.
C/C-allele SMA mice are treated by oral gavage two times per day (BID) for 10 days with test compounds re-suspended in 0.5% HPMC and 0.1% Tween-80. Tissue samples were collected and snap frozen for RNA purification.
Tissue samples (20-40 mg) are homogenized in QIAzol Lysis Reagent for 2 minutes at 20 Hz in the TissueLyser II using one stainless steel bead. After addition of chloroform, the homogenate is separated into aqueous and organic phases by centrifugation. RNA partitioned to the upper, aqueous phase is extracted and ethanol is added to provide appropriate binding conditions. The sample is then applied to the RNeasy spin column from the RNeasy Mini Kit, where total RNA binds to the membrane. The RNA is eluted in RNase-free water then stored at −20° C. and subsequently analyzed using the TaqMan RT-qPCR on the 7900HT Thermocycler. Total RNA is diluted ten fold and 2.5 μL, of the diluted sample is added to the TaqMan RT-qPCR mixture.
SMN2 spliced products are identified using the following primers and probes in Table 7. Primer SMN FL Forward B (SEQ ID NO. 7) hybridizes to a nucleotide sequence in exons 7 and 8, primer SMN Δ7 Forward B (SEQ ID NO. 8) hybridizes to a nucleotide sequence in exons 6 and 8, primer SMN Reverse B (SEQ ID NO. 9) hybridizes to a nucleotide sequence in exon 8, probe SMN Probe B (SEQ ID NO. 10) hybridizes to a nucleotide sequence in exon 8. These primers and probe hybridize to nucleotide sequences common to human SMN1 and SMN2 mRNA. Since the SMA patient cells used in Example 5 contain only the SMN2 gene, RT-qPCR can quantify only SMN2 full-length and Δ7 mRNA.
The SMN forward and reverse primers are used at final concentrations of 0.4 μM. The SMN probe is used at a final concentration of 0.15 μM. The SMN-GAPDH Mix (10 μL, total volume) is prepared by combining 5 μL of 2×RT-PCR buffer, 0.4 μL of 25×RT-PCR enzyme mix, 0.5 μL of 20×GAPDH primer-probe mix, 1.505 μL of water, 2.5 μL of RNA solution, 0.04 μL of 100 μM forward primer, 0.04 μL of 100 μM reverse primer, and 0.015 μL of 100 μM SMN probe. […]
The increase of SMN2 FL and decrease in SMN2 Δ7 mRNA relative to those in tissues from animals treated with vehicle control are determined from real-time PCR data using a modified ΔΔCt method (as described in Livak and Schmittgen, Methods, 2001, 25:402-8). The amplification efficiency (E) is calculated from the slope of the amplification curve for SMN2 FL, SMN2 Δ7, and GAPDH individually. The abundances of SMN2 FL, SMN2 Δ7, and GAPDH are then calculated as (1+E)^−Ct, where Ct is the threshold value for each amplicon. […]

[2] = tested on: full length and Δ7 SMN2 mRNA; assay: Endogenous SMN2 mRNA end-point semi-quantitative RT-PCR splicing assay in cultured cells; assay type: cell-based, human; details: Type 1 SMA patient fibroblasts (GM03813), increasing concentrations, 24 hr, FIG. 5
Description: The endpoint reverse transcription-PCR splicing assay is used to visualize and quantify the levels of the full length and Δ7 SMN2 mRNA in primary cells and cell lines containing the SMN2 gene treated with a test compound.
GM03813 SMA patient cells (5,000 cells/well) are seeded in 200 μL of cell culture medium (DMEM plus 10% FBS) in 96-well flat-bottom plates and the plate is immediately swirled to ensure proper dispersal of cells, forming an even monolayer of cells. Cells are allowed to attach for at least 4-6 hrs. Test compounds are serially diluted 3.16-fold in 100% DMSO to generate a 7-point concentration curve. A solution of test compound (1 μL, 200× in DMSO) is added to each test well and 1 μL DMSO is added to each control well. The plate is incubated for 24 hrs in a cell culture incubator (37° C., 5% CO2, 100% relative humidity). The cells are then lysed in Cells-To-Ct lysis buffer and the lysate is stored at 80° C.
SMN FL and Δ7 mRNA are identified using the following primers in Table 6. These primers hybridize to a nucleotide sequence in exon 6 (SMN Forward C, SEQ ID NO. 11) (nucleotide 43 to nucleotide 63) and exon 8 (SMN Reverse C, SEQ ID NO. 12) (nucleotide 51 to nucleotide 73) common to human SMN1 and SMN2 mRNA. Since the SMA patient cells used in Example 4 contain only the SMN2 gene, RT-PCR can visualize and quantify only SMN2 full-length and SMN2 Δ7 mRNA.
To synthesize cDNA, 5 μL of lysate, 4 μL of 5× iScript reaction mix, 1 μL of reverse transcriptase, and 10 μL of water are combined and incubated 5 min at 25° C. followed by 30 min at 42° C., followed by 5 min at 85° C. The cDNA solution is stored at −20° C.
To perform endpoint PCR, 5 μL of cDNA, 0.2 μL of 100 μM forward primer, 0.2 μL of 100 μM reverse primer, and 22.5 μL of polymerase super mix are combined in a 96 well semiskirted PCR plate. PCR is carried out at the following temperatures for the indicated time: Step 1: 94° C. (2 min), Step 2: 94° C. (30 sec), Step 3: 55° C. (30 sec), Step 4: 68° C. (1 min), then repeat Steps 2 to 4 for a total of 33 cycles, then hold at 4° C.
10 μL of each PCR sample is electrophoretically separated on a 2% agarose E-gel for 14 minutes stained with double-stranded DNA (dsDNA) staining reagents (e.g., ethidium bromide) and visualized using a gel imager.

| SMILES | SMN2 FL mRNA in tissues [1] | SMN2 Δ7 mRNA in tissues [1] | SMN2 FL mRNA (gel band) [2] | SMN2 Δ7 mRNA (gel band) [2] |
| --- | --- | --- | --- | --- |
| Cc1cn2cc(-c3cc4ccc(N5CCN6CCC[C@H]6C5)cc4c(=O)o3)nc2c(C)n1 [Cpd 69, 3-(6,8-dimethylimidazo[1,2-a]pyrazin-2-yl)-7-[(8aS)-hexahydropyrrolo[1,2-a]pyrazin-2(1H)-yl]-1H-isochromen-1-one] | substantially more SMN2 FL mRNA | less SMN2 Δ7 mRNA | progressively more SMN2 FL mRNA | less SMN2 Δ7 mRNA |
| Cc1cn2cc(-c3cc4ccc(N5CCN(C)CC5)cc4c(=O)o3)nc2c(C)n1 [Cpd 65, 3-(6,8-dimethylimidazo[1,2-a]pyrazin-2-yl)-7-(4-methylpiperazin-1-yl)-1H-isochromen-1-one] | substantially more SMN2 FL mRNA | less SMN2 Δ7 mRNA | progressively more SMN2 FL mRNA | less SMN2 Δ7 mRNA |
